# Experimental data published in publication PMC7872314, “Modeling Bioavailable Concentrations in Zebrafish Cell Lines and Embryos Increases the Correlation of Toxicity Potencies across Test Systems” (Environmental Science & Technology, 2020).
# Read-outs that look alike come from different tables or passages of the source.
# Key:
# [1] = tested on: ZF4 (fibroblasts) cell line; assay: BCA assay (MTS/BCA multiplex), protein amount; assay type: cell-based, zebrafish (Danio rerio); settings: Danio rerio, Fibroblast
# zebrafish embryos [2] = tested on: zebrafish embryos; design: method as in earlier work; settings: nominal, cited from earlier work
# ZF4 and ZFL cell lines = assay: Cytotoxicity assays, all endpoints, both cell lines (mean/range); assay type: cell-based, zebrafish (Danio rerio); settings: 48 h
# [3] = tested on: ZFL (hepatocytes) cell line; assay: cells; assay type: cell-based, zebrafish (Danio rerio); settings: Danio rerio, Hepatocyte
# [4] = tested on: ZFL (hepatocytes) cell line; assay: cells; assay type: cell-based, zebrafish (Danio rerio); settings: Danio rerio, Hepatocyte; remark: listed apart in the source
# [5] = tested on: ZF4 (fibroblasts) cell line; assay: MTS assay (MTS/BCA multiplex), NAD(P)H metabolism; assay type: cell-based, zebrafish (Danio rerio); settings: Danio rerio, Fibroblast
# [6] = tested on: ZFL (hepatocytes) cell line; assay: cells; assay type: cell-based, zebrafish (Danio rerio); settings: Danio rerio, Hepatocyte; remark: listed apart in the source
# [7] = tested on: ZF4 (fibroblasts) cell line; assay: Neutral red, absorbance (NRa), AB/CFDA/NR multiplex, lysosome stability; assay type: cell-based, zebrafish (Danio rerio); settings: Danio rerio, Fibroblast
# [8] = tested on: ZFL (hepatocytes) cell line; assay: cells; assay type: cell-based, zebrafish (Danio rerio); settings: Danio rerio, Hepatocyte; remark: listed apart in the source
# [9] = tested on: ZF4 (fibroblasts) cell line; assay: Neutral red, fluorescence (NRf), AB/CFDA/NR multiplex, lysosome stability; assay type: cell-based, zebrafish (Danio rerio); settings: Danio rerio, Fibroblast
# zebrafish embryos [10] = assay: animal or person; assay type: in vivo, zebrafish (Danio rerio)
# [11] = tested on: ZF4 (fibroblasts) cell line; assay: CFDA endpoint of AB/CFDA/NR multiplex, membrane stability; assay type: cell-based, zebrafish (Danio rerio); settings: Danio rerio, Fibroblast
# [12] = tested on: ZFL (hepatocytes) cell line; assay: cells; assay type: cell-based, zebrafish (Danio rerio); settings: Danio rerio, Hepatocyte; remark: listed apart in the source
# [13] = tested on: ZF4 (fibroblasts) cell line; assay: ATP assay (ATP/LDH multiplex), ATP metabolism; assay type: cell-based, zebrafish (Danio rerio); settings: Danio rerio, Fibroblast
# [14] = ref Comptox, PubChem or DrugBank; cited from earlier work
# [15] = tested on: ZFL (hepatocytes) cell line; assay: cells; assay type: cell-based, zebrafish (Danio rerio); settings: Danio rerio, Hepatocyte; remark: listed apart in the source
# [16] = tested on: ZF4 (fibroblasts) cell line; assay: alamarBlue (AB) endpoint of AB/CFDA/NR multiplex, cellular respiration; assay type: cell-based, zebrafish (Danio rerio); settings: Danio rerio, Fibroblast
# [17] = tested on: ZFL (hepatocytes) cell line; assay: cells; assay type: cell-based, zebrafish (Danio rerio); settings: Danio rerio, Hepatocyte; remark: listed apart in the source
smiles,measurement,setting,value
"CCC(C)C1OC2(CCC1C)CC1CC(CC=C(C)C(OC3CC(OC)C(OC4CC(OC)C(O)C(C)O4)C(C)O3)C(C)C=CC=C3COC4C(O)C(C)=CC(C(=O)O1)C34O)O2 (stereo not drawn) [Ivermectin, ivermectin]",IC50,"[1]; BCA - ZF4, log10 of IC50, read-out: LogIC50 (converted)",16.2 µM
same,IC50,"[1]; BCA - ZF4, read-out: IC50",16.2 µM
same,IC50,"[1]; ZF4, 48 h exposure, nominal, log10, read-out: logIC50 (log10 IC50;nom) BCA (converted)",16.2 µM
same,IC50,"[1]; ZF4, 48 h exposure, nominal, read-out: IC50;nom BCA",16.2 µM
same,EC50,"zebrafish embryos [2]; 144 hpf, converted, listed as Ive",0.503 µM
same,logEC50 144 hpf,zebrafish embryos [2]; log10,-6.299 M
same,IC50,"ZF4 and ZFL cell lines; Danio rerio, read-out: Mean log IC50nom, mean of all cytotoxicity endpoints (without LDH) in ZF4 and ZFL, 48 h, log10 (converted)",9.12 µM
same,Mean log IC50nom,"ZF4 and ZFL cell lines; mean of all cytotoxicity endpoints (without LDH) in ZF4 and ZFL, log10, listed as Ive",-5.042 M
same,IC50,"[3]; BCA - ZFL, log10 of IC50, read-out: LogIC50 (converted)",7.08 µM
same,IC50,"[3]; BCA - ZFL, read-out: IC50",7.08 µM
same,IC50,"[3]; ZFL, 48 h exposure, nominal, log10, read-out: logIC50 (log10 IC50;nom) BCA (converted)",7.08 µM
same,IC50,"[3]; ZFL, 48 h exposure, nominal, read-out: IC50;nom BCA",7.08 µM
same,IC50,"[4]; CFDA - ZFL, log10 of IC50, read-out: LogIC50 (converted)",14.1 µM
same,IC50,"[4]; CFDA - ZFL, read-out: IC50",14.1 µM
same,IC50,"[4]; ZFL, 48 h exposure, nominal, log10, read-out: logIC50 (log10 IC50;nom) CFDA (converted)",14.1 µM
same,IC50,"[4]; ZFL, 48 h exposure, nominal, read-out: IC50;nom CFDA",14.1 µM
same,IC50,"[5]; MTS - ZF4, log10 of IC50, read-out: LogIC50 (converted)",13.6 µM
same,IC50,"[5]; MTS - ZF4, read-out: IC50",13.6 µM
same,IC50,"[5]; ZF4, 48 h exposure, nominal, log10, read-out: logIC50 (log10 IC50;nom) MTS (converted)",13.5 µM
same,IC50,"[5]; ZF4, 48 h exposure, nominal, read-out: IC50;nom MTS",13.6 µM
same,IC50,"[6]; NR-abs - ZFL, log10 of IC50, read-out: LogIC50 (converted)",2.55 µM
same,IC50,"[6]; NR-abs - ZFL, read-out: IC50",2.55 µM
same,IC50,"[6]; ZFL, 48 h exposure, nominal, log10, read-out: logIC50 (log10 IC50;nom) NRa (converted)",2.57 µM
same,IC50,"[6]; ZFL, 48 h exposure, nominal, read-out: IC50;nom NRa",2.55 µM
same,IC50,"[7]; NR-abs - ZF4, log10 of IC50, read-out: LogIC50 (converted)",15.4 µM
same,IC50,"[7]; NR-abs - ZF4, read-out: IC50",15.4 µM
same,IC50,"[7]; ZF4, 48 h exposure, nominal, log10, read-out: logIC50 (log10 IC50;nom) NRa (converted)",15.5 µM
same,IC50,"[7]; ZF4, 48 h exposure, nominal, read-out: IC50;nom NRa",15.4 µM
same,IC50,"[8]; MTS - ZFL, log10 of IC50, read-out: LogIC50 (converted)",10.2 µM
same,IC50,"[8]; MTS - ZFL, read-out: IC50",10.2 µM
same,IC50,"[8]; ZFL, 48 h exposure, nominal, log10, read-out: logIC50 (log10 IC50;nom) MTS (converted)",10.2 µM
same,IC50,"[8]; ZFL, 48 h exposure, nominal, read-out: IC50;nom MTS",10.2 µM
same,IC50,"[9]; NR-fluo - ZF4, log10 of IC50, read-out: LogIC50 (converted)",18.1 µM
same,IC50,"[9]; NR-fluo - ZF4, read-out: IC50",18.1 µM
same,IC50,"[9]; ZF4, 48 h exposure, nominal, log10, read-out: logIC50 (log10 IC50;nom) NRf (converted)",18.2 µM
same,IC50,"[9]; ZF4, 48 h exposure, nominal, read-out: IC50;nom NRf",18.1 µM
same,difference in toxicity (EC50;nom) between 48 hpf and 144 hpf,zebrafish embryos [10]; 48 hpf time point less sensitive than 144 hpf,marginally more toxic
same,log EC50;nom (mFET),"zebrafish embryos [10]; 48 hpf, nominal, log10, listed as Ive",-5.766 M
same,EC50,"zebrafish embryos [10]; Danio rerio, 48 hpf, nominal, log10, read-out: log EC50;nom (mFET) (converted)",1.7 µM
same,EC50,"zebrafish embryos [10]; Danio rerio, 48 hpf, nominal, read-out: EC50;nom (embryo)",1.5 µg/mL
same,EC50,"zebrafish embryos [10]; Danio rerio, read-out: EC50 48hpf",1.71 µM
same,EC50,"zebrafish embryos [10]; Danio rerio, read-out: EC50;nom (mFET)",1.71 µM
same,EC50,"zebrafish embryos [10]; zebrafish, in vivo, listed as Ive, read-out: EC50;nom (mFET)",1.71 µM
same,IC50,"[11]; CFDA - ZF4, log10 of IC50, read-out: LogIC50 (converted)",18.2 µM
same,IC50,"[11]; CFDA - ZF4, read-out: IC50",18.2 µM
same,IC50,"[11]; ZF4, 48 h exposure, nominal, log10, read-out: logIC50 (log10 IC50;nom) CFDA (converted)",18.2 µM
same,IC50,"[11]; ZF4, 48 h exposure, nominal, read-out: IC50;nom CFDA",18.2 µM
same,IC50,"[12]; NR-fluo - ZFL, log10 of IC50, read-out: LogIC50 (converted)",3.34 µM
same,IC50,"[12]; NR-fluo - ZFL, read-out: IC50",3.34 µM
same,IC50,"[12]; ZFL, 48 h exposure, nominal, log10, read-out: logIC50 (log10 IC50;nom) NRf (converted)",3.31 µM
same,IC50,"[12]; ZFL, 48 h exposure, nominal, read-out: IC50;nom NRf",3.34 µM
same,IC50,"[13]; ATP - ZF4, log10 of IC50, read-out: LogIC50 (converted)",15.4 µM
same,IC50,"[13]; ATP - ZF4, read-out: IC50",15.4 µM
same,IC50,"[13]; ZF4, 48 h exposure, nominal, log10, read-out: logIC50 (log10 IC50;nom) ATP (converted)",15.5 µM
same,IC50,"[13]; ZF4, 48 h exposure, nominal, read-out: IC50;nom ATP",15.4 µM
same,Physiological charge,[14],0
same,Water Solubility,[14],insoluble
same,logKow,[14],5.83
same,pKa (Strongest Acidic),[14],12.47
same,pKa (Strongest Basic),[14],-3.4
same,IC50,"[15]; ATP - ZFL, log10 of IC50, read-out: LogIC50 (converted)",2.61 µM
same,IC50,"[15]; ATP - ZFL, read-out: IC50",2.61 µM
same,IC50,"[15]; ZFL, 48 h exposure, nominal, log10, read-out: logIC50 (log10 IC50;nom) ATP (converted)",2.63 µM
same,IC50,"[15]; ZFL, 48 h exposure, nominal, read-out: IC50;nom ATP",2.61 µM
same,IC50,"[16]; AB - ZF4, log10 of IC50, read-out: LogIC50 (converted)",10.2 µM
same,IC50,"[16]; AB - ZF4, read-out: IC50",10.2 µM
same,IC50,"[16]; ZF4, 48 h exposure, nominal, log10, read-out: logIC50 (log10 IC50;nom) AB (converted)",10.2 µM
same,IC50,"[16]; ZF4, 48 h exposure, nominal, read-out: IC50;nom AB",10.2 µM
same,IC50,"[17]; AB - ZFL, log10 of IC50, read-out: LogIC50 (converted)",6.58 µM
same,IC50,"[17]; AB - ZFL, read-out: IC50",6.58 µM
same,IC50,"[17]; ZFL, 48 h exposure, nominal, log10, read-out: logIC50 (log10 IC50;nom) AB (converted)",6.61 µM
same,IC50,"[17]; ZFL, 48 h exposure, nominal, read-out: IC50;nom AB",6.58 µM
